Source: US9980943B2, “Methods of treating muscular dystrophy” (BOARD OF REGENTS OF THE NEVADA SYSTEM OF HIGHER EDUCATION, …, priority 2013, dated 2018)

Legend:
Format in all cases: cell-based, mouse
[1] = tested on: α7 integrin (LacZ reporter in α7βgal+/− myoblasts); assay: Myoblast α7+/LacZ integrin FDG assay (Burkin assay in myoblasts, 96-well); conditions: 96-well; for Burkin Assay in Myoblasts, signal relative to DMSO: α7+/LacZ myoblasts; for Burkin Assay in Myoblasts, value relative to DMSO: SU9516 analogs, N=3-6
[2] = tested on: α7 integrin (LacZ reporter in α7+/LacZ myotubes); assay: Myotube α7 integrin FDG assay (Burkin assay in myotubes, 96-well); conditions: for Burkin Assay in Myotubes, value relative to DMSO: SU9516 analogs, 96-well, N=3-6
[3] = tested on: β-galactosidase in CMV-LacZ C2C12 myoblasts; assay: CMV-LacZ secondary screen in C2C12 myoblasts (β-Gal stabilizing assay); conditions: for CMV-LACZ in Myoblasts (β-galactosidase activity relative to DMSO): CMV-LacZ C2C12 myoblasts; for CMV-LACZ in Myoblasts, value relative to DMSO: SU9516 analogs, C2C12 CMV-LacZ, N=2
How it was run: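 First, C2C12 myoblasts were transfected with a linearized CMV-LACZ vector and clonal lines selected by FDG β-gal assay. Then cells were exposed to compounds at 0.5, 1, 5, 10, 20 and 40 μM in 96-well format, two replicates each, and β-gal measured.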

[4] = tested on: β-galactosidase in CMV-LacZ C2C12 myotubes; assay: CMV-LacZ secondary screen in C2C12 myotubes (β-Gal stabilizing assay); conditions: for CMV-LACZ in Myotubes, signal relative to DMSO: C2C12 CMV-LacZ myotubes, fold relative to DMSO; for CMV-LACZ in Myotubes, value relative to DMSO: SU9516 analogs, C2C12 CMV-LacZ, N=2
How it was run: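 β-Gal level was the read-out, measured in a clonal C2C12 line expressing LacZ from a CMV promoter. Dose-response curves used six concentrations, 0.5 μM up to 40 μM, with duplicate points.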

CCC(C)n1[nH]c(=O)cc1N (centres unmarked) [MLS000073150-01]
Burkin Assay in Myoblasts, signal relative to DMSO ([1]; 0.5 uM): 1.262
Burkin Assay in Myoblasts, signal relative to DMSO ([1]; 1 uM): 1.0875
Burkin Assay in Myoblasts, signal relative to DMSO ([1]; 5 uM): 0.9262
Burkin Assay in Myoblasts, signal relative to DMSO ([1]; 10 uM): 0.909
Burkin Assay in Myoblasts, signal relative to DMSO ([1]; 20 uM): 1.139
Burkin Assay in Myoblasts, signal relative to DMSO ([1]; 40 uM): 1.068
Burkin Assay in Myotubes, α7 integrin LacZ reporter signal relative to DMSO ([2]; 0.5 uM): 1.111
Burkin Assay in Myotubes, α7 integrin LacZ reporter signal relative to DMSO ([2]; 1 uM): 0.9205
Burkin Assay in Myotubes, α7 integrin LacZ reporter signal relative to DMSO ([2]; 5 uM): 0.9467
Burkin Assay in Myotubes, α7 integrin LacZ reporter signal relative to DMSO ([2]; 10 uM): 0.9476
Burkin Assay in Myotubes, α7 integrin LacZ reporter signal relative to DMSO ([2]; 20 uM): 0.8369
Burkin Assay in Myotubes, α7 integrin LacZ reporter signal relative to DMSO ([2]; 40 uM): 0.856
CMV-LACZ in Myoblasts (β-galactosidase activity relative to DMSO) ([3]; 0.5 uM): 1.0753
CMV-LACZ in Myoblasts (β-galactosidase activity relative to DMSO) ([3]; 1 uM): 1.8970
CMV-LACZ in Myoblasts (β-galactosidase activity relative to DMSO) ([3]; 5 uM): 0.8193
CMV-LACZ in Myoblasts (β-galactosidase activity relative to DMSO) ([3]; 10 uM): 0.9954
CMV-LACZ in Myoblasts (β-galactosidase activity relative to DMSO) ([3]; 20 uM): 0.9491
CMV-LACZ in Myoblasts (β-galactosidase activity relative to DMSO) ([3]; 40 uM): 0.9000
CMV-LACZ in Myotubes, signal relative to DMSO ([4]; 0.5 uM): 1.0752
CMV-LACZ in Myotubes, signal relative to DMSO ([4]; 1 uM): 1.0848
CMV-LACZ in Myotubes, signal relative to DMSO ([4]; 5 uM): 1.2058
CMV-LACZ in Myotubes, signal relative to DMSO ([4]; 10 uM): 1.1088
CMV-LACZ in Myotubes, signal relative to DMSO ([4]; 20 uM): 0.9750
CMV-LACZ in Myotubes, signal relative to DMSO ([4]; 40 uM): 1.0390

O=C1CCC(C(=O)N2CCSCC2)CN1Cc1ccc(Cl)cc1 (centres unmarked) [MLS001090787-01]
Burkin Assay in Myoblasts, signal relative to DMSO ([1]; 0.5 uM): 1.142
Burkin Assay in Myoblasts, signal relative to DMSO ([1]; 1 uM): 0.9734
Burkin Assay in Myoblasts, signal relative to DMSO ([1]; 5 uM): 1.263
Burkin Assay in Myoblasts, signal relative to DMSO ([1]; 10 uM): 1.46
Burkin Assay in Myoblasts, signal relative to DMSO ([1]; 20 uM): 1.265
Burkin Assay in Myoblasts, signal relative to DMSO ([1]; 40 uM): 1.222
Burkin Assay in Myotubes, α7 integrin LacZ reporter signal relative to DMSO ([2]; 0.5 uM): 1.054
Burkin Assay in Myotubes, α7 integrin LacZ reporter signal relative to DMSO ([2]; 1 uM): 1.168
Burkin Assay in Myotubes, α7 integrin LacZ reporter signal relative to DMSO ([2]; 5 uM): 1.083
Burkin Assay in Myotubes, α7 integrin LacZ reporter signal relative to DMSO ([2]; 10 uM): 1.195
Burkin Assay in Myotubes, α7 integrin LacZ reporter signal relative to DMSO ([2]; 20 uM): 1.209
Burkin Assay in Myotubes, α7 integrin LacZ reporter signal relative to DMSO ([2]; 40 uM): 1.5544
CMV-LACZ in Myoblasts (β-galactosidase activity relative to DMSO) ([3]; 0.5 uM): 0.9196
CMV-LACZ in Myoblasts (β-galactosidase activity relative to DMSO) ([3]; 1 uM): 0.9754
CMV-LACZ in Myoblasts (β-galactosidase activity relative to DMSO) ([3]; 5 uM): 0.9700
CMV-LACZ in Myoblasts (β-galactosidase activity relative to DMSO) ([3]; 10 uM): 0.8594
CMV-LACZ in Myoblasts (β-galactosidase activity relative to DMSO) ([3]; 20 uM): 0.7533
CMV-LACZ in Myoblasts (β-galactosidase activity relative to DMSO) ([3]; 40 uM): 0.5907
CMV-LACZ in Myotubes, signal relative to DMSO ([4]; 0.5 uM): 1.0009
CMV-LACZ in Myotubes, signal relative to DMSO ([4]; 1 uM): 0.9055
CMV-LACZ in Myotubes, signal relative to DMSO ([4]; 5 uM): 1.0126
CMV-LACZ in Myotubes, signal relative to DMSO ([4]; 10 uM): 1.1178
CMV-LACZ in Myotubes, signal relative to DMSO ([4]; 20 uM): 0.8990
CMV-LACZ in Myotubes, signal relative to DMSO ([4]; 40 uM): 0.9450

Cc1cc(C)c(/C=C2\C(=O)Nc3ccccc32)[nH]1 [NCGC00094381-03]
Burkin Assay in Myoblasts, value relative to DMSO ([1]; 0.5 uM): 0.9368
Burkin Assay in Myoblasts, value relative to DMSO ([1]; 1 uM): 0.9952
Burkin Assay in Myoblasts, value relative to DMSO ([1]; 5 uM): 0.7327
Burkin Assay in Myoblasts, value relative to DMSO ([1]; 10 uM): 0.6579
Burkin Assay in Myoblasts, value relative to DMSO ([1]; 20 uM): 0.6668
Burkin Assay in Myoblasts, value relative to DMSO ([1]; 40 uM): 0.5203
Burkin Assay in Myotubes, value relative to DMSO ([2]; 0.5 uM): 0.8564
Burkin Assay in Myotubes, value relative to DMSO ([2]; 1 uM): 0.9334
Burkin Assay in Myotubes, value relative to DMSO ([2]; 5 uM): 0.9015
Burkin Assay in Myotubes, value relative to DMSO ([2]; 10 uM): 1.024
Burkin Assay in Myotubes, value relative to DMSO ([2]; 20 uM): 0.9497
Burkin Assay in Myotubes, value relative to DMSO ([2]; 40 uM): 1.151
CMV-LACZ in Myoblasts, value relative to DMSO ([3]; 0.5 uM): 0.9504
CMV-LACZ in Myoblasts, value relative to DMSO ([3]; 5 uM): 0.8667
CMV-LACZ in Myoblasts, value relative to DMSO ([3]; 10 uM): 1.0089
CMV-LACZ in Myoblasts, value relative to DMSO ([3]; 20 uM): 0.7777
CMV-LACZ in Myoblasts, value relative to DMSO ([3]; 40 uM): 1.0253
CMV-LACZ in Myotubes, value relative to DMSO ([4]; 0.5 uM): 0.9227
CMV-LACZ in Myotubes, value relative to DMSO ([4]; 1 uM): 1.2227
CMV-LACZ in Myotubes, value relative to DMSO ([4]; 5 uM): 1.1125
CMV-LACZ in Myotubes, value relative to DMSO ([4]; 10 uM): 1.5444
CMV-LACZ in Myotubes, value relative to DMSO ([4]; 20 uM): 10.9800
CMV-LACZ in Myotubes, value relative to DMSO ([4]; 40 uM): 18.6030
